Consider 20 compounds from US10752626B2, “Iso-citrate dehydrogenase (IDH) inhibitor” (SHANGHAI METON PHARMACEUTICAL CO., LTD, priority 2016, dated 2020).

A value given as a limit tells only on which side of the number the result lay.

One data set addresses IDH1 R132C (Homo sapiens (Human), UniProt O75874, R132C). Kind of data set: Biochemical assay for inhibition of mutant IDH1 R132C. To be noted: tested in triplet. From the text: The present disclosure provides a biochemical assay method for detecting the IDH inhibition and selectivity of the compounds by detecting IDH enzyme activity directly.
Wild-type IDH enzyme could convert NADP^+ to NADPH when it catalyzes the α-KG producing reaction. Mutant IDH enzyme could convert NADPH to NADP^+ when it catalyzes the D-2-HG producing reaction. So the activity of wild-type and mutant IDH1/2 could be measured by monitoring NADPH level change: in the reaction catalyzed by wild-type IDH1/2, the newly generated NADPH is utilized instantly by coupled diaphorase-resazurin reaction to generate resorufin which is fluorescent (at Excitation 544 nm, Emission 590 nm) and thus NADPH is monitored indirectly; while in the reaction catalyzed by mutant IDH1/2, NADPH is directly monitored as it is fluorescent (at Excitation 340 nm, Emission 460 nm). By monitoring the change of NADPH level in the reaction, the enzyme activity could be determined rapidly and efficiently, IC50 of a compound could also be assayed.
The test compounds were prepared into 50 mM stock solutions in DMSO and stored at −20° C. Each test compound stock was further diluted to obtain a 100× stock solution at a concentration of 200 μM, 100 μM, 50 μM, 25 μM, 12.5 jμM, 6.25 μM and 3.125 μM, respectively, for the final use on the day of test.
Inhibition of Mutant IDHJ (R132H or R132C):
Solution A was prepared by combining 1 M Tris-HCl pH7.5 (300 μL), 5 M NaCl (450 μL), 1 M MgCl2 (150 μL), 1 M DTT (15 μL), 20 mg/mL BSA (37.5 μL), 20 mM NADPH (20 μL), and 0.5 mM α-KG (40 μL), followed by adding deionized water to a final volume of 15 mL.
Reaction buffer was prepared by combining 1 M Tris-HCl pH 7.5 (200 μL), 5 M NaCl (300 μL), 1 M MgCl2 (100 μL), 1 M DTT (10 μL) and 20 mg/mL BSA (25 μL), followed by adding deionized water to a final volume of 10 mL.
Solution B was prepared by combining the reaction buffer (5 mL) and […] IDH1-R132H (5.21 μL) or 107 μM IDH1-R132C (4.67 μL).
148 μL Solution A was added into each sample well of a 96-well plate P1, and then 2 μL of the test compound solution at each concentration and 2 μL of DMSO (negative control/blank) were added into individual sample well respectively. 50 μL of Solution B was added into each of the sample wells having test compounds and one sample well having DMSO only, and 50 μL of reaction buffer was added into another sample well having DMSO only, respectively. P1 was put into BioTek Synergy H4 Microplate reader (BioTek Instruments Inc., Winooski, U.S.), and the program was set as follows: 37° C., shake plate 5 seconds, run kinetic mode, total detection time 20 min, detection intervals 40 seconds, detection mode fluorescence (at Excitation 340 nm, Emission 460 nm). The data were exported, the relative enzyme activity and the half-maximal inhibitory concentration (IC50) for the test compound were calculated. Relative enzyme activity was calculated as the absolute value of the slope of the Emission 460 reads of each well plotted against time (which represents the conversion rate of ca-KG to 2-HG through IDH1 modulated utilization of NADPH). The Dose-response curve was drawn and the IC50 was calculated via fitting. The IDH inhibition and selectivity of each test compound can be evaluated according to the effect of the compounds on the IDH enzyme activity.
The IDH inhibition activity of the compounds were assessed according to Test 5 of the Biological evaluation section. The test for mutant IDH1 R132H/R132C inhibition of each compound was carried out in triplet. For IDH1 R132H, the enzyme activity of exemplary Compounds 16, 21, 22, 23, 24 and 31 is plotted as a function of logarithm of the concentration of the compound in FIGS. 8A-8C, 9A-9C, 10A-10C, 11A-11C, 12A-12C and 13A-13C, respectively. […]

Data set [1] in a line: Metabolic stability in dog liver microsome. The following applies: for K: Mean; for microsomal CLint at 1 μM / half-life at 1 μM: microsomes, pH 7.4. The procedure: The liver microsomes of mouse, rat, dog, monkey and human were purchased from Corning Inc., and were stored at −60° C. prior to use. The acetonitrile and NADPH were purchased from Honeywell International Inc. (New Jersey, U.S.) and Roche Inc. (Basel, Swiss).
Reactions were initiated by adding NADPH to a final concentration of 1 mM. The final volume of each reaction mixture was 0.2 ml, and all reactions were performed in duplicate. At each set time point (0, 5, 15, 30 and 60 min), a small aliquot (e.g., 20 μl) was transferred from the reaction system into ice-cold internal standard (IS) containing acetonitrile to quench the reaction and to precipitate the protein. After vortex and centrifuge at 3700 rpm for 10 min, the supernatant was injected into LC-MS/MS for analysis.
In vitro microsomal clearance was estimated based on determination of elimination half-life (T1/2) of compounds disappearance from their initial concentrations. Peak area ratios of each compound (test or control) to IS was calculated. Ln (% Control) versus Incubation Time (min) curve was plotted, and the slope of a linear fitting line was calculated. Drug elimination rate constant k (min^−1), T1/2 (min), and in vitro intrinsic clearance CLint (mL·min^−1·mg^−1 proteins) was calculated according to the following equations: k=−slope T1/2=0.693/k CLint=k/Cprotein where Cprotein (mg·mL^−1) is the microsomal protein concentration in the incubation system. Test 3: Metabolic Stability Assay in Mouse Plasma
In this study, the metabolic stability of the compounds was assessed in mouse, rat, dog, monkey and human liver microsome according to the method disclosed in Test 2 of the Biological evaluation section.

Chain of IDH1 R132C (O75874 whole entry R132C): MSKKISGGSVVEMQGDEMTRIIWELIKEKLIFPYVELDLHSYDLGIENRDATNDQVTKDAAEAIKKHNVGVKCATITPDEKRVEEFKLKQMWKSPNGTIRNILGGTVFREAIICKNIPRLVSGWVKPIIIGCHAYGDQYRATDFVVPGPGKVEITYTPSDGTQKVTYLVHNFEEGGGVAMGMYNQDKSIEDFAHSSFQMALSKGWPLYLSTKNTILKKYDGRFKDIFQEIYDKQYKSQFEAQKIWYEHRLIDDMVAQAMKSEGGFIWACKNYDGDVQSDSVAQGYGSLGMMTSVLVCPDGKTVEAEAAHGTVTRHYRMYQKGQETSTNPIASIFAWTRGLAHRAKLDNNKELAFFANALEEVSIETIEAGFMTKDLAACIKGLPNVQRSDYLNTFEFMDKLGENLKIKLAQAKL

As to `CCN1Cc2c(ccnc2N[C@@H](C)c2ccc(Br)cc2)C1=O` [Compound 1, (S)-4-(1-(4-bromophenyl)ethylamino)-2-ethyl-2,3-dihydro-1H-pyrrolo[3,4-c]pyridin-1-one], the IC50 at IDH1 R132C fell in the range of 10 to 15 µM.

For `CCN1Cc2c(ccnc2N[C@@H](C)c2ccc(F)cc2)C1=O` [Compound 2, (S)-2-ethyl-4-(1-(4-fluorophenyl)ethylamino)-2,3-dihydro-1H-pyrrolo[3,4-c]pyridin-1-one], the IC50 at IDH1 R132C lay within 10 to 15 µM.

For the compound `CCN1Cc2c(ccnc2N[C@@H](C)c2ccc(C)cc2)C1=O` [Compound 3, (S)-2-ethyl-4-(1-p-tolylethylamino)-2,3-dihydro-1H-pyrrolo[3,4-c]pyridin-1-one], the IC50 at IDH1 R132C is 10 to 15 µM.

In the case of `C[C@H](Nc1nccc2c1CN(C1CC1)C2=O)c1ccccc1` [Compound 4, (S)-2-cyclopropyl-4-(1-phenylethylamino)-2,3-dihydro-1H-pyrrolo[3,4-c]pyridin-1-one], the IC50 on IDH1 R132C fell in the range of 10 to 15 µM.

As to `CCCCN1Cc2c(ccnc2N[C@@H](C)c2ccccc2)C1=O` [Compound 5, (S)-2-butyl-4-(1-phenylethylamino)-2,3-dihydro-1H-pyrrolo[3,4-c]pyridin-1-one], on IDH1 R132C, the IC50 is 10 to 15 µM.

For the compound `C[C@H](Nc1nccc2c1CN(Cc1ccccc1)C2=O)c1ccccc1` [Compound 6, (S)-2-benzyl-4-(1-phenylethylamino)-2,3-dihydro-1H-pyrrolo[3,4-c]pyridin-1-one], the IC50 on IDH1 R132C lay in the range of 10 to 15 µM.

`COc1ccc(CN2Cc3c(ccnc3N[C@@H](C)c3ccccc3)C2=O)cc1` [Compound 7, (S)-2-(4-methoxybenzyl)-4-(1-phenylethylamino)-2,3-dihydro-1H-pyrrolo[3,4-c]pyridin-1-one]: the IC50 on IDH1 R132C was 10 to 15 µM.

Consider `CC(C)N1Cc2c(ccnc2N[C@@H](C)c2ccccc2)C1=O` [Compound 8, (S)-2-isopropyl-4-(1-phenylethylamino)-2,3-dihydro-1H-pyrrolo[3,4-c]pyridin-1-one], for which the IC50 at IDH1 R132C fell in the range of 10 to 15 µM.

For the compound `COCCN1Cc2c(ccnc2N[C@@H](C)c2ccccc2)C1=O` [Compound 9, (S)-2-(2-methoxyethyl)-4-(1-phenylethylamino)-2,3-dihydro-1H-pyrrolo[3,4-c]pyridin-1-one], the IC50 on IDH1 R132C was in the range of 10 to 15 µM.

As to `CCN1Cc2c(ccnc2N[C@@H](C)c2ccccc2)C1=O` [Compound 10, (S)-2-ethyl-4-(1-phenylethylamino)-2,3-dihydro-1H-pyrrolo[3,4-c]pyridin-1-one], the IC50 on IDH1 R132C lay in the range of 10 to 15 µM.

As to `CCN1Cc2c(ccnc2N[C@@H](C)c2ccc(OC)cc2)C1=O` [Compound 11, (S)-2-ethyl-4-(1-(4-methoxyphenyl)ethylamino)-2,3-dihydro-1H-pyrrolo[3,4-c]pyridin-1-one], the IC50 at IDH1 R132C fell in the range of 10 to 15 µM.

Turning to `CCOC(=O)c1ccc([C@H](C)Nc2nccc3c2CN(CC)C3=O)cc1` [Compound 12, (S)-ethyl-4-(1-(2-ethyl-1-oxo-2,3-dihydro-1H-pyrrolo[3,4-c]pyridin-4-ylamino)ethyl)benzoate], the half-maximal inhibitory concentration (IC50) on IDH1 R132C lay in the range of 10 to 15 µM.

Take `CCN1Cc2c(ccnc2N[C@@H](C)c2ccc(C(=O)Nc3ccccc3)cc2)C1=O` [Compound 13, (S)-4-(1-(2-ethyl-1-oxo-2,3-dihydro-1H-pyrrolo[3,4-c]pyridin-4-ylamino)ethyl)-N-phenylbenzamide]: the IC50 at IDH1 R132C was 10 to 15 µM.

In the case of `CCN1Cc2c(ccnc2N[C@@H](C)c2ccc(-c3cn(C)nn3)cc2)C1=O` [Compound 14, (S)-2-ethyl-4-(1-(4-(1-methyl-1H-1,2,3-triazol-4-yl)phenyl)ethylamino)-2,3-dihydro-1H-pyrrolo[3,4-c]pyridin-1-one], the IC50 on IDH1 R132C lay in the range of 10 to 15 µM.

As for `CCN1Cc2c(ccnc2N[C@@H](C)c2ccc(Oc3cccc(C)c3)cc2)C1=O` [Compound 15, (S)-2-ethyl-4-((1-(4-(m-tolyloxy)phenyl)ethyl)amino)-2,3-dihydro-1H-pyrrolo[3,4-c]pyridin-1-one], the IC50 on IDH1 R132C was ≤ 1.5 µM.

`CCN1Cc2c(ccnc2N[C@@H](C)c2ccc(Oc3ccccc3C)cc2)C1=O` [Compound 17, (S)-2-ethyl-4-(1-(4-(o-tolyloxy)phenyl)ethylamino)-2,3-dihydro-1H-pyrrolo [3,4-c]pyridin-1-one]: at IDH1 R132C, the IC50 was ≤ 1.5 µM.

With `CCN1Cc2c(ccnc2N[C@@H](C)c2ccc(Oc3ccccc3)cc2)C1=O` [Compound 18, (S)-2-ethyl-4-(1-(4-phenoxyphenyl)ethylamino)-2,3-dihydro-1H-pyrrolo[3,4-c]pyridin-1-one], the IC50 at IDH1 R132C was ≤ 1.5 µM.

For `CCN1Cc2c(ccnc2N[C@@H](C)c2ccc(Oc3ccc(OC)cc3)cc2)C1=O` [Compound 19, (S)-2-ethyl-4-(1-(4-(4-methoxyphenoxy)phenyl)ethylamino)-2,3-dihydro-1H-pyrrolo[3,4-c]pyridin-1-one], on IDH1 R132C, the IC50 is ≤ 1.5 µM.

Take `CCN1Cc2c(ccnc2N[C@@H](C)c2ccc(Oc3ccc(F)cc3)cc2)C1=O` [Compound 20, (S)-2-ethyl-4-(1-(4-(4-fluorophenoxy)phenyl)ethylamino)-2,3-dihydro-1H-pyrrolo[3,4-c]pyridin-1-one]: the IC50 on IDH1 R132C was in the range of 1.5 to 10 µM.

As to `Cc1ncc2n1-c1ccc(Cl)cc1C(c1ccccc1F)=NC2` [Positive control, Midazolam, reference compound], the K was determined as 0.140 min⁻¹ in data set [1] (dog liver microsome); 0.0612 min⁻¹ in data set [1] (human liver microsome); 0.211 min⁻¹ in data set [1] (monkey liver microsome); 0.0964 min⁻¹ in data set [1] (mouse liver microsome); 0.174 min⁻¹ in data set [1] (rat liver microsome). Moreover, the microsomal CLint at 1 μM amounted to 702 µL/min/mg in data set [1] (dog); 306 µL/min/mg in data set [1] (human); 1050 µL/min/mg in data set [1] (monkey); 482 µL/min/mg in data set [1] (mouse); 871 µL/min/mg in data set [1] (rat). Besides, the half-life at 1 μM worked out at 11.3 min in data set [1] (human), 3.29 min in data set [1] (monkey), 7.19 min in data set [1] (mouse) and 3.98 min in data set [1] (rat).
